The results in this text go back to patent US8952033B2, “4-anilinofuro[2,3-b]quinoline derivatives, their preparation processes, and pharmaceutical compositions comprising the same” (Kaohsiung Medical University, priority 2011, dated 2015).

Series [1] deals with SF-268 (central nervous system carcinoma cell). In words: MTT antiproliferative assay (cell growth %, GI50), SF-268. Format: cell-based. More on the design: Cell growth (%) SF-268: unit of the concentration uncertain. The note with it: for SI SF-268: GI50 MRC-5 / GI50 SF-268; for GI50: Homo sapiens; for Cell growth (%) SF-268: 48 hours, MTT. Here is the method: (§1) Antiproliferative activities of the compounds of this invention were evaluated substantially according to the method as described in Tseng, C. […] The cells were treated with the test compounds, i.e., the compounds of this invention (in dimethylsulfoxide (DMSO)), or DMSO for 48 hours.
(§2) Before and after the treatment with the test compounds or DMSO, 3-(4,5-dimethylthiazol-2-yl)-2,5-diphenyltetrazolium bromide (MTT, 2 mg/mL, 100 μL) was added to each of the cultures, followed by cultivation for 2 hours. The resultant formazan was dissolved by the addition of DMSO. Absorbance at 570 nm (OD570) was measured using a microtiter plate reader (Dynex MRX-II).
(§3) Determination of GI50 was conducted thrice for each test compound. GI50 is expressed as mean±SD.
A general note: Tetrazolium dyes change colour on reduction, which living cells bring about.

Series [2] can be described thus: Determination of solubility in water. The note with it: for Solubility in water: 25±0.1° C., stirred overnight, UV-VIS. Format: physicochemical. The method, then: Determination of solubility in water was conducted substantially according to the method as described in Vougogiannopoulou, K. et al. (2008), J. Med. Chem., 51:6421-6431. An excess amount of the respective test compound was added into water, followed by sonication for 5 minutes. The resultant mixture was stirred at ambient temperature (25±0.1° C.) overnight. Centrifugation at 4000 rpm and 25° C. was conducted for 5 minutes. Absorbance of the sample of the respective test compound was measured at 315-420 nm using a UV-VIS spectrophotometer (JASCO UV-Visible V570). For each test compound, a standard curve was generated by plotting concentrations of standard solutions and the corresponding absorbances. The absorbance of the sample of each test compound was then converted to solubility in water (μg/mL) using the corresponding standard curve.

The test system of series [3] is MRC-5 (human lung fibroblast cell). In words: GI50 determination on normal cell line MRC-5. In kind it is cell-based. Here is the method: as §1, §2, §3
For series [4], the system named is NCI-H460 (non-small cell lung carcinoma cell). In words: MTT antiproliferative assay (cell growth %, GI50), NCI-H460. The note with it: for SI NCI-H460: GI50 MRC-5 / GI50 NCI-H460; for activity at 4000 µg/mL / activity at 20000 µg/mL / GI50: Homo sapiens; for activity at 4000 µg/mL: 4 mg/ml; for activity at 4000 µg/mL / activity at 20000 µg/mL / Cell growth (%) NCI-H460: 48 hours, MTT; for activity at 20000 µg/mL: 20 mg/ml. Format: cell-based. More on the design: Cell growth (%) NCI-H460: unit of the concentration uncertain. The method, then:
as §1, §2, §3

The subject of series [5] is MCF-7 (breast cancer cell). Description: MTT antiproliferative assay (cell growth %, GI50), MCF-7. In kind it is cell-based. The note with it: for SI MCF-7: GI50 MRC-5 / GI50 MCF-7; for activity at 4000 µg/mL / activity at 20000 µg/mL / GI50: Homo sapiens; for activity at 4000 µg/mL: 4 mg/ml; for activity at 4000 µg/mL / activity at 20000 µg/mL / Cell growth (%) MCF-7: 48 hours, MTT; for activity at 20000 µg/mL: 20 mg/ml. Further details: Cell growth (%) MCF-7: unit of the concentration uncertain. The method, then:
as §1, §2, §3

Setting [6] is: SF-268, mean±SD, read-out: GI50 SF-268.
[7] abbreviates: MRC5, normal cell line, mean±SD, read-out: GI50 MRC-5.
[8] abbreviates: NCI-H460, mean±SD, read-out: GI50 NCI-H460.
Setting [9] is: MCF7, mean±SD, read-out: GI50 MCF-7.

A word on the GI50: it is the concentration giving 50% growth inhibition.

Values after ≈ are worked out from the molar mass of the structure shown. Like-named read-outs stand apart in the source and are kept apart here.

As to `C/C(=N\OCCCN)c1ccc(Nc2c3ccccc3nc3occc23)cc1` [Compound 13c, (E)-1-(4-(furo[2,3-b]quinolin-4-ylamino)phenyl)ethanone O-3-aminopropyl oxime], the “SI SF-268” value in series [1] came out at 5.71. In addition, the 50% growth inhibitory concentration (GI50) in series [1] (setting [6]) was 7.53 ± 0.41 µM; in series [3] (setting [7]) it was 43 ± 0.86 µM; in series [4] (setting [8]), 7.08 ± 0.67 µM; in series [5] (setting [9]) it was 11.52 ± 0.02 µM. In series [2], this compound showed a Solubility in water of 58 µg/mL (≈ 155 µM). Also, the “SI NCI-H460” value in series [4] is 6.07. Moreover, the activity at 4000 µg/mL is 22% in series [4] (NCI-H460) and 52% in series [5] (MCF7). The values for the activity at 20000 µg/mL in series [4] (NCI-H460) and in series [5] (MCF7) were -2% and -3%, respectively. Moreover, the “SI MCF-7” value in series [5] is given as 3.73.
As for `C/C(=N\OCCCN)c1ccc(Nc2c3ccccc3nc3occ(Cl)c23)cc1` [Compound 14c, (E)-1-(4-(3-Chlorofuro[2,3-b]quinolin-4-ylamino)phenyl)ethanone O-3-aminopropyl oxime], in series [1], the “SI SF-268” value was 1.46. Moreover, the GI50 in series [1] (setting [6]) worked out at 32.5 ± 1.25 µM; in series [3] (setting [7]), 47.1 ± 2.27 µM; in series [4] (setting [8]), 16.2 ± 0.36 µM; in series [5] (setting [9]) it was 9.46 ± 0.23 µM. This compound yielded a Solubility in water in series [2] of 36 µg/mL (≈ 88 µM). In addition, in series [4], the “SI NCI-H460” value is on record as 2.90. Also, the activity at 4000 µg/mL came out at 28% in series [4] (NCI-H460) and 46% in series [5] (MCF7). Moreover, the activity at 20000 µg/mL in series [4] (NCI-H460) and in series [5] (MCF7) was 0% throughout. In series [5], the “SI MCF-7” value was determined as 4.98.
Turning to `COc1ccc2c(Nc3ccc(/C(C)=N/OCCN)cc3)c3ccoc3nc2c1` [Compound 15a, (E)-1-(4-(7-Methoxyfuro[2,3-b]quinolin-4-ylamino)phenyl)ethanone O-2-aminoethyl oxime], in series [1], the “SI SF-268” value is on record as 5.53. Besides, the GI50 is 8.15 ± 0.44 µM in series [1] (setting [6]), 45.11 ± 0.31 µM in series [3] (setting [7]), 3.96 ± 0.14 µM in series [4] (setting [8]) and 36.23 ± 0.05 µM in series [5] (setting [9]). Also, the Solubility in water in series [2] stood at 16 µg/mL (≈ 41 µM). Besides, in series [4], the “SI NCI-H460” value came out at 11.39. Moreover, the values for the activity at 4000 µg/mL in series [4] (NCI-H460) and in series [5] (MCF7) were 14% and 71%, respectively. Also, the values for the activity at 20000 µg/mL in series [4] (NCI-H460) and in series [5] (MCF7) were 11% and 8%, respectively. For the same compound, the “SI MCF-7” value in series [5] stood at 1.24.
`COc1ccc2c(Nc3ccc(/C(C)=N/OCCN)cc3)c3c(Cl)coc3nc2c1` [Compound 16a, (E)-1-(4-(3-Chloro-7-methoxyfuro[2,3-b]quinolin-4-ylamino)phenyl)ethanone O-2-aminoethyl oxime]: in series [1], the “SI SF-268” value came out at 6.34. The GI50 in series [1] (setting [6]) worked out at 7.48 ± 0.366 µM; in series [3] (setting [7]) it was 47.46 ± 0.38 µM; in series [4] (setting [8]), 3.86 ± 0.13 µM; in series [5] (setting [9]) it was 36.93 ± 0.31 µM. The compound also returned a Solubility in water in series [2] of 17 µg/mL (≈ 40 µM). In series [4], the “SI NCI-H460” value is reported as 12.30. The activity at 4000 µg/mL was 13% in series [4] (NCI-H460) and 66% in series [5] (MCF7). Moreover, the activity at 20000 µg/mL in series [4] (NCI-H460) was 3%; in series [5] (MCF7) it was -1%. The “SI MCF-7” value in series [5] turned out to be 1.28.
As for `COc1ccc2c(Nc3ccc(/C(C)=N/OCCN(C)C)cc3)c3c(Cl)coc3nc2c1` [Compound 16b, (E)-1-(4-(3-Chloro-7-methoxyfuro[2,3-b]quinolin-4-ylamino)phenyl)ethanone O-2-(dimethylamino) ethyl oxime], the “Cell growth (%) SF-268” value in series [1] (4 (unit uncertain)) is reported as 102%; in series [1] (20 (unit uncertain)), −1%. Further, the “Cell growth (%) NCI-H460” value in series [4] (4 (unit uncertain)) is on record as 74%; in series [4] (20 (unit uncertain)), −1%. Also, the results for the “Cell growth (%) MCF-7” value in series [5] (4 (unit uncertain)) and in series [5] (20 (unit uncertain)) were 51% and −2%, respectively.
As for `COc1ccc2c(Nc3ccc(/C(C)=N/OCCCN(C)C)cc3)c3c(Cl)coc3nc2c1` [Compound 16d, (E)-1-(4-(3-Chloro-7-methoxyfuro[2,3-b]quinolin-4-ylamino)phenyl)ethanone O-3-(dimethylamino) propyl oxime], the “Cell growth (%) SF-268” value was found to be 103% in series [1] (4 (unit uncertain)) and 1% in series [1] (20 (unit uncertain)). Moreover, the “Cell growth (%) NCI-H460” value in series [4] (4 (unit uncertain)) was 66%; in series [4] (20 (unit uncertain)), 4%. The “Cell growth (%) MCF-7” value in series [5] (4 (unit uncertain)) is reported as 66%; in series [5] (20 (unit uncertain)) it was 1%.
As for `COc1ccc2c(Nc3ccc(/C(C)=N/OCCN4CCOCC4)cc3)c3c(Cl)coc3nc2c1` [Compound 16g, (E)-1-(4-(3-Chloro-7-methoxyfuro[2,3-b]quinolin-4-ylamino)phenyl)ethanone O-2-morpholinoethyl oxime], the activity at 4000 µg/mL in series [4] (NCI-H460) was determined as 97%; in series [5] (MCF7) it was 85%. Also, the results for the activity at 20000 µg/mL in series [4] (NCI-H460) and in series [5] (MCF7) were 68% and 37%, respectively.
Take `COc1ccc2c(Nc3ccc(/C(C)=N/OCCCCN4CCOCC4)cc3)c3c(Cl)coc3nc2c1` [Compound 16h, (E)-1-(4-(3-Chloro-7-methoxyfuro[2,3-b]quinolin-4-ylamino)phenyl)ethanone O-4-morpholinobutyl oxime]: in series [4] (NCI-H460), the activity at 4000 µg/mL is 87% and the activity at 20000 µg/mL was 20%. For the same compound, in series [5] (MCF7), the activity at 4000 µg/mL worked out at 96% and the activity at 20000 µg/mL came to 5%.
Compound `C/C(=N\OCCN)c1ccc(Nc2c3ccccc3nc3occc23)cc1.Cl` [Hydrochloride salt of 13a, hydrochloride salt of (E)-1-(4-(furo[2,3-b]quinolin-4-ylamino)phenyl)ethanone O-2-aminoethyl oxime] came in with a Solubility in water in series [2] of 1049 µg/mL. In addition, the “Solubility in water relative to compound 13a” value in series [2] (fold versus compound 13a) is on record as “about 17 times”.
For `CC[C@@]1(O)C(=O)OCc2c1cc1n(c2=O)Cc2cc3ccccc3nc2-1` [camptothecin, reference compound], in series [1], the “SI SF-268” value amounted to 4.68. For the same compound, the GI50 in series [1] (setting [6]) was 0.19 ± 0.006 µM; in series [3] (setting [7]), 0.89 ± 0.9 µM; in series [4] (setting [8]) it was 0.03 ± 0.003 µM; in series [5] (setting [9]), 11.1 ± 0.61 µM. Moreover, in series [4], the “SI NCI-H460” value is on record as 29.67. Moreover, the “SI MCF-7” value in series [5] worked out at 0.08.
Regarding `COc1cccc2c1C(=O)c1c(O)c3c(c(O)c1C2=O)C[C@@](O)(C(C)=O)C[C@@H]3O[C@H]1C[C@H](N)[C@H](O)[C@H](C)O1` [daunorubicin, reference compound], the “SI SF-268” value in series [1] is listed as 1.47. Further, the GI50 in series [1] (SF-268, read-out: GI50 SF-268) was determined as 0.6 ± 0.02 µM; in series [3] (MRC5, read-out: GI50 MRC-5), 0.88 ± 0.11 µM; in series [4] (NCI-H460, read-out: GI50 NCI-H460), 0.38 ± 0.04 µM; in series [5] (MCF7, read-out: GI50 MCF-7), 5.03 ± 0.05 µM. Also, the “SI NCI-H460” value in series [4] was 2.32. Moreover, the “SI MCF-7” value in series [5] came to 0.17.
